The test deals with T1, human adenosine A2b receptor (Homo sapiens, UniProt P29275).
T1 sequence (P29275 1-332): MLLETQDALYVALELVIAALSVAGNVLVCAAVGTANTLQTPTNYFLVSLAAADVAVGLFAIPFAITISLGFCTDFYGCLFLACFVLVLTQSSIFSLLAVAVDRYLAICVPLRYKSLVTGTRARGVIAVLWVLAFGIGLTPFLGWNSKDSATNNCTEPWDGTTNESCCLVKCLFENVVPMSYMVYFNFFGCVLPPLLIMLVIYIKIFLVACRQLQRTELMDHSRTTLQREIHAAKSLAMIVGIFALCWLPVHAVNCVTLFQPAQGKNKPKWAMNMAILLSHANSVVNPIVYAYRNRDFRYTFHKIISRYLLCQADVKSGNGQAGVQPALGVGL
Kind of test: Cellular in vitro reporter gene test for A2b receptor activity (antagonism of NECA). It is filed as cell-based. More on the design: expressed in transfected cells; host or cells: CHO-K1 (Chinese hamster ovary) with CRE-luciferase reporter. The conditions noted are these: recombinant CHO-K1 cells, CRE-luciferase reporter, co-incubation with EC50 concentration of NECA, 3 hours. In outline: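 Antagonism measured as block of NECA-induced, cAMP/CRE-dependent luciferase expression in recombinant A2b CHO-K1 cells. NECA used at the EC50 set in a pre-experiment on each test day; luminescence detected after 3 h. Reported as IC50, partly averaged and rounded to two significant figures.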
Background: In a reporter assay the amount or activity of a reporter protein is the signal.

For 26 molecules, IC50 results are on record in patent US20200016159A1, “N3-CYCLICALLY SUBSTITUTED THIENOURACILS AND USE THEREOF” (Bayer Aktiengesellschaft, priority 2016, published 2020).

The term IC50 denotes the midpoint of a concentration-inhibition curve.

Turning to `Cc1c(CN2CCNC2=O)sc2c1c(=O)n(C1CC1C)c(=O)n2CC(F)(F)F` (single isomer, unassigned) [Example 238, 5-Methyl-3-(2-methylcyclopropyl)-6-[(2-oxoimidazolidin-1-yl)methyl]-1-(2,2,2-trifluoroethyl)thieno[2,3-d]pyrimidine-2,4(1H,3H)-dione], the IC50 turned out to be 0.024 µM.

For the molecule `CCCCn1c(=O)n(C2CC2)c(=O)c2c(C)c(CN3CCNC3=O)sc21` [Example 3, 1-Butyl-3-cyclopropyl-5-methyl-6-[(2-oxoimidazolidin-1-yl)methyl]thieno[2,3-d]pyrimidine-2,4(1H,3H)-dione], the IC50 worked out at 0.0069 µM. For the molecule `Cc1c(CN2CCNC2=O)sc2c1c(=O)n(C1CC1C)c(=O)n2CCCC(F)(F)F` (racemic) [Example 242, 5-Methyl-3-(2-methylcyclopropyl)-6-[(2-oxoimidazolidin-1-yl)methyl]-1-(4,4,4-trifluorobutyl)thieno[2,3-d]pyrimidine-2,4(1H,3H)-dione], the concentration for half-maximal inhibition (IC50) turned out to be 0.0021 µM. The figure for `CCOCCn1c(=O)n(C2CC2)c(=O)c2c(C)c(CN3CCNC3=O)sc21` [Example 31, 3-Cyclopropyl-1-(2-ethoxyethyl)-5-methyl-6-[(2-oxoimidazolidin-1-yl)methyl]thieno[2,3-d]pyrimidine-2,4(1H,3H)-dione] is 0.067 µM; for `Cc1c(Cn2[nH]ccc2=O)sc2c1c(=O)n(C1CC(C)(C)C1)c(=O)n2CCC(F)(F)F` [Example 314, 3-(3,3-Dimethylcyclobutyl)-5-methyl-6-[(5-oxo-2,5-dihydro-H-pyrazol-1-yl)methyl]-1-(3,3,3-trifluoropropyl)thieno[2,3-d]pyrimidine-2,4(1H,3H)-dione] it is 0.049 µM. The figure for `CCCCn1c(=O)n([C@H]2C[C@@H]2C)c(=O)c2c(C)c(Cn3nc[nH]c3=O)sc21` [Example 318, 1-Butyl-5-methyl-3-[(1S,2S)-2-methylcyclopropyl]-6-[(5-oxo-4,5-dihydro-H-1,2,4-triazol-1-yl)methyl]thieno[2,3-d]pyrimidine-2,4(1H,3H)-dione] is 0.012 µM; for `COCCn1c(=O)n(C2CC2C(F)(F)F)c(=O)c2c(C)c(CN3CCNC3=O)sc21` (single isomer, unassigned) [Example 295, 1-(2-Methoxyethyl)-5-methyl-6-[(2-oxoimidazolidin-1-yl)methyl]-3-[2-(trifluoromethyl)cyclopropyl]thieno[2,3-d]pyrimidine-2,4(1H,3H)-dione] it is 0.12 µM; for `Cc1c(Cn2nc[nH]c2=O)sc2c1c(=O)n(C1(C)CC1)c(=O)n2CCC(F)(F)F` [Example 60, 5-Methyl-3-(1-methylcyclopropyl)-6-[(5-oxo-4,5-dihydro-1H-1,2,4-triazol-1-yl)methyl]-1-(3,3,3-trifluoropropyl)thieno[2,3-d]pyrimidine-2,4(1H,3H)-dione] it is 0.015 µM. Regarding `Cc1c(Cn2[nH]ccc2=O)sc2c1c(=O)n(C1CC1C)c(=O)n2CCOC(F)(F)F` (racemic) [Example 273, 5-Methyl-3-(2-methylcyclopropyl)-6-[(5-oxo-2,5-dihydro-1H-pyrazol-1-yl)methyl]-1-[2-(trifluoromethoxy)ethyl]thieno[2,3-d]pyrimidine-2,4(1H,3H)-dione], the IC50 was determined as 0.067 µM. The figure for `Cc1c(Cn2nc[nH]c2=O)sc2c1c(=O)n(C1(C)CC1)c(=O)n2CCOC(C)C` [Example 80, 1-(2-Isopropoxyethyl)-5-methyl-3-(1-methylcyclopropyl)-6-[(5-oxo-4,5-dihydro-H-1,2,4-triazol-1-yl)methyl]thieno[2,3-d]pyrimidine-2,4(1H,3H)-dione] is 0.74 µM; for `Cc1c(CN2CCNC2=O)sc2c1c(=O)n(C1(C)CC1)c(=O)n2CCC(F)(F)F` [Example 56, 5-Methyl-3-(1-methylcyclopropyl)-6-[(2-oxoimidazolidin-1-yl)methyl]-1-(3,3,3-trifluoropropyl)thieno[2,3-d]pyrimidine-2,4(1H,3H)-dione] it is 0.0036 µM. On to `COCCn1c(=O)n(C2CC2OC)c(=O)c2c(C)c(CN3CCNC3=O)sc21` (racemic) [Example 306, 3-(2-Methoxycyclopropyl)-1-(2-methoxyethyl)-5-methyl-6-[(2-oxoimidazolidin-1-yl)methyl]thieno[2,3-d]pyrimidine-2,4(1H,3H)-dione], for which the IC50 was found to be 0.016 µM. The figure for `COCCn1c(=O)n(C2CC(C)(C)C2)c(=O)c2c(C)c(CN3CCNC3=NC(=O)OC)sc21` [Example 171, Methyl [1-{[3-(3,3-dimethylcyclobutyl)-1-(2-methoxyethyl)-5-methyl-2,4-dioxo-1,2,3,4-tetrahydrothieno[2,3-d]pyrimidin-6-yl]methyl}imidazolidin-2-ylidene]carbamate] is 0.017 µM. The same measure for `Cc1c(CN2CCNC2=O)sc2c1c(=O)n([C@H]1C[C@@H]1C)c(=O)n2CC1CCO1` (stereo partly drawn) [Example 282, 5-Methyl-3-[(1S,2S)-2-methylcyclopropyl]-1-(oxetan-2-ylmethyl)-6-[(2-oxoimidazoliidin-1-yl)methyl]thieno[2,3-d]pyrimidine-2,4(1H,3H)-dione]: 0.0041 µM. As to `Cc1c(CN2CCNC2=O)sc2c1c(=O)n(C1CC1C)c(=O)n2CC(F)F` (single isomer, unassigned) [Example 236, 1-(2,2-Difluoroethyl)-5-methyl-3-(2-methylcyclopropyl)-6-[(2-oxoimidazolidin-1-yl)methyl]thieno[2,3-d]pyrimidine-2,4(1H,3H)-dione], the IC50 was found to be 0.0012 µM. The same measure for `Cc1c(Cn2nc[nH]c2=O)sc2c1c(=O)n([C@H]1C[C@@H]1C)c(=O)n2CCCC(F)(F)F` [Example 324, 5-Methyl-3-[(1S,2S)-2-methylcyclopropyl]-6-[(5-oxo-4,5-dihydro-1H-1,2,4-triazol-1-yl)methyl]-1-(4,4,4-trifluorobutyl)thieno[2,3-d]pyrimidine-2,4(1H, 3H)-dione]: 0.0055 µM; for `Cc1c(CN2CCNC2=O)sc2c1c(=O)n(C1CCC1)c(=O)n2CCC(F)(F)F` [Example 110, 3-Cyclobutyl-5-methyl-6-[(2-oxoimidazolidin-1-yl)methyl]-1-(3,3,3-trifluoropropyl)thieno[2,3-d]pyrimidine-2,4(1H,3H)-dione]: 0.00059 µM.

Turning to `Cc1c(CN2CCNC(=O)C2=O)sc2c1c(=O)n(C1CC(F)(F)C1)c(=O)n2CCC(F)(F)F` [Example 123, 3-(3,3-Difluorocyclobutyl)-6-[(2,3-dioxopiperazin-1-yl)methyl]-5-methyl-1-(3,3,3-trifluoropropyl)thieno[2,3-d]pyrimidine-2,4(1H,3H)-dione], the half-inhibitory concentration (IC50) amounted to 0.01 µM. `Cc1c(CN2CCNC2=O)sc2c1c(=O)n([C@H]1C[C@@H]1C)c(=O)n2CC1CC1(F)F` (single isomer, unassigned) [Example 250]: the IC50 was 0.0011 µM. The same measure for `COCCn1c(=O)n(C2CC2(C)C)c(=O)c2c(C)c(CN3CCNC3=O)sc21` (racemic) [Example 103, 3-(2,2-Dimethylcyclopropyl)-1-(2-methoxyethyl)-5-methyl-6-[(2-oxoimidazolidin-1-yl)methyl]thieno[2,3-d]pyrimidine-2,4(1H,3H)-dione]: 0.021 µM. The same measure for `Cc1c(CN2CCNC(=O)C2=O)sc2c1c(=O)n(C1CCCC1)c(=O)n2CCC(F)(F)F` [Example 187, 3-Cyclopentyl-6-[(2,3-dioxopiperazin-1-yl)methyl]-5-methyl-1-(3,3,3-trifluoropropyl)thieno[2,3-d]pyrimidine-2,4(1H,3H)-dione]: 0.019 µM; for `CCn1c(=O)n(C2CC2C)c(=O)c2c(C)c(CN3CCNC3=O)sc21` (single isomer, unassigned) [Example 225, 1-Ethyl-5-methyl-3-(2-methylcyclopropyl)-6-[(2-oxoimidazolidin-1-yl)methyl]thieno[2,3-d]pyrimidine-2,4(1H,3H)-dione]: 0.026 µM; for `CCCCn1c(=O)n(C2(C)CC2)c(=O)c2c(C)c(Cn3nc[nH]c3=O)sc21` [Example 55, 1-Butyl-5-methyl-3-(1-methylcyclopropyl)-6-[(5-oxo-4,5-dihydro-1H-1,2,4-triaiazol-1-yl)methyl]thieno[2,3-d]pyrimidine-2,4(1H,3H)-dione]: 0.049 µM.

Turning to `Cc1c(Cn2nc[nH]c2=O)sc2c1c(=O)n(C1CC1)c(=O)n2CC1CC1(F)F` (single isomer, unassigned; enantiomer 2) [Example 22, 3-Cyclopropyl-1-[(2,2-difluorocyclopropyl)methyl]-5-methyl-6-[(5-oxo-4,5-dihydro-1H-1,2,4-triazol-1-yl)methyl]thieno[2,3-d]pyrimidine-2,4(1H,3H)-dione (enantiomer 2)], the IC50 was found to be 0.28 µM. In the case of `Cc1c(CN2CCNC2=O)sc2c1c(=O)n(C1CC1C)c(=O)n2CCC(F)(F)F` (single isomer, unassigned) [Example 240, 5-Methyl-3-(2-methylcyclopropyl)-6-[(2-oxoimidazolidin-1-yl)methyl]-1-(3,3,3-trifluoropropyl)thieno[2,3-d]pyrimidine-2,4(1H,3H)-dione], the IC50 came out at 0.0024 µM. The figure for `COCCn1c(=O)n(C2CC2C(F)(F)F)c(=O)c2c(C)c(CN3CCNC3=O)sc21` (racemic) [Example 294, 1-(2-Methoxyethyl)-5-methyl-6-[(2-oxoimidazolidin-1-yl)methyl]-3-[2-(trifluoromethyl)cyclopropyl]thieno[2,3-d]pyrimidine-2,4(1H,3H)-dione] is 0.02 µM.
